Laboratory results taken from ChEMBL document CHEMBL4507274 (2021).

Experiments:
[1] = tested on: Tyrosine-protein kinase ABL1 (Homo sapiens), P00519 [Q252H]; settings: Compound concentration 100.0 nM
[2] = molecular target: Activin receptor type-2A (Homo sapiens) (UniProt P27037); settings: Compound concentration 100.0 nM
[3] = molecular target: Cyclin-dependent kinase 3 (Homo sapiens) (UniProt Q00526); settings: Compound concentration 100.0 nM
[4] = molecular target: Cyclin-dependent kinase-like 5 (Homo sapiens) (UniProt O76039); settings: Compound concentration 100.0 nM
[5] = molecular target: Dual specificity protein kinase CLK1 (Homo sapiens) (UniProt P49759); settings: Compound concentration 100.0 nM
[6] = molecular target: Macrophage colony-stimulating factor 1 receptor (Homo sapiens) (UniProt P07333); settings: Compound concentration 100.0 nM
Sequence of Macrophage colony-stimulating factor 1 receptor (Homo sapiens) (P07333 whole entry, canonical isoform): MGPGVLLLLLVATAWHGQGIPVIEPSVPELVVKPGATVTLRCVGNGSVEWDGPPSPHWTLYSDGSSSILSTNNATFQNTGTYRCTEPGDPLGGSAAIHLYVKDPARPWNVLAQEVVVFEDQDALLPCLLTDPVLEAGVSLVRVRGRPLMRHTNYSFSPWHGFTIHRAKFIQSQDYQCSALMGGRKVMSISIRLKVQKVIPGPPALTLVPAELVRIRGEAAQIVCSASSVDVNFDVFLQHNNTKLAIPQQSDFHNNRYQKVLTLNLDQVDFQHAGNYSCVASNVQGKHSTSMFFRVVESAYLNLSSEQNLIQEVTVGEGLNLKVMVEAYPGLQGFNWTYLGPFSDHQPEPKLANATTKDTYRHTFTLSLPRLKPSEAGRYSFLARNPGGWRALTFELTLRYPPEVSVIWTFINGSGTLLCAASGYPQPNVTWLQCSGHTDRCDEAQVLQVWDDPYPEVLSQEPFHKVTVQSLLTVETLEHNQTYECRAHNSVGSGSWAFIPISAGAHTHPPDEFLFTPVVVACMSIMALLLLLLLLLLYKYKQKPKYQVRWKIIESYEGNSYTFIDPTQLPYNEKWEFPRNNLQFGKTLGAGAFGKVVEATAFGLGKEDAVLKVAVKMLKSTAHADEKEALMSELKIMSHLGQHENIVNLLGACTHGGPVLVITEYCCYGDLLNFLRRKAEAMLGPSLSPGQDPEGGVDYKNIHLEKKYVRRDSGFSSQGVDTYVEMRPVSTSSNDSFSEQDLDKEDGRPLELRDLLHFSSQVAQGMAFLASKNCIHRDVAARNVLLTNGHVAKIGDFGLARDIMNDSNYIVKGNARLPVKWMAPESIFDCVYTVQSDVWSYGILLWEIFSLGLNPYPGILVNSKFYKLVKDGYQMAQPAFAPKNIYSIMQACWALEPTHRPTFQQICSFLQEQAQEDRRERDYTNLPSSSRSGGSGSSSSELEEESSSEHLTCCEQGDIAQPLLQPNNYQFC

[7] = molecular target: Casein kinase I isoform gamma-1 (Homo sapiens) (UniProt Q9HCP0); settings: Compound concentration 100.0 nM
[8] = molecular target: Casein kinase I isoform gamma-2 (Homo sapiens) (UniProt P78368); settings: Compound concentration 100.0 nM
[9] = molecular target: Death-associated protein kinase 3 (Homo sapiens) (UniProt O43293); settings: Compound concentration 100.0 nM
[10] = molecular target: Receptor tyrosine-protein kinase erbB-3 (Homo sapiens) (UniProt P21860); settings: Compound concentration 100.0 nM
[11] = molecular target: Mitogen-activated protein kinase 7 (Homo sapiens) (UniProt Q13164); settings: Compound concentration 100.0 nM
[12] = molecular target: Serine/threonine-protein kinase/endoribonuclease IRE1 (Homo sapiens) (UniProt O75460); settings: Compound concentration 100.0 nM
[13] = molecular target: Tyrosine-protein kinase Fer (Homo sapiens) (UniProt P16591); settings: Compound concentration 100.0 nM
[14] = molecular target: Tyrosine-protein kinase Fes/Fps (Homo sapiens) (UniProt P07332); settings: Compound concentration 100.0 nM
[15] = molecular target: Fibroblast growth factor receptor 3 (Homo sapiens) (UniProt P22607); settings: Compound concentration 100.0 nM
[16] = molecular target: Tyrosine-protein kinase Fgr (Homo sapiens) (UniProt P09769); settings: Compound concentration 100.0 nM
[17] = molecular target: Tyrosine-protein kinase Fyn (Homo sapiens) (UniProt P06241); settings: Compound concentration 100.0 nM
[18] = molecular target: Insulin receptor (Homo sapiens) (UniProt P06213); settings: Compound concentration 100.0 nM
[19] = molecular target: Serine/threonine-protein kinase MAK (Homo sapiens) (UniProt P20794); settings: Compound concentration 100.0 nM
[20] = molecular target: Mitogen-activated protein kinase kinase kinase 3 (Homo sapiens) (UniProt Q99759); settings: Compound concentration 100.0 nM
Sequence of Mitogen-activated protein kinase kinase kinase 3 (Homo sapiens) (Q99759 whole entry): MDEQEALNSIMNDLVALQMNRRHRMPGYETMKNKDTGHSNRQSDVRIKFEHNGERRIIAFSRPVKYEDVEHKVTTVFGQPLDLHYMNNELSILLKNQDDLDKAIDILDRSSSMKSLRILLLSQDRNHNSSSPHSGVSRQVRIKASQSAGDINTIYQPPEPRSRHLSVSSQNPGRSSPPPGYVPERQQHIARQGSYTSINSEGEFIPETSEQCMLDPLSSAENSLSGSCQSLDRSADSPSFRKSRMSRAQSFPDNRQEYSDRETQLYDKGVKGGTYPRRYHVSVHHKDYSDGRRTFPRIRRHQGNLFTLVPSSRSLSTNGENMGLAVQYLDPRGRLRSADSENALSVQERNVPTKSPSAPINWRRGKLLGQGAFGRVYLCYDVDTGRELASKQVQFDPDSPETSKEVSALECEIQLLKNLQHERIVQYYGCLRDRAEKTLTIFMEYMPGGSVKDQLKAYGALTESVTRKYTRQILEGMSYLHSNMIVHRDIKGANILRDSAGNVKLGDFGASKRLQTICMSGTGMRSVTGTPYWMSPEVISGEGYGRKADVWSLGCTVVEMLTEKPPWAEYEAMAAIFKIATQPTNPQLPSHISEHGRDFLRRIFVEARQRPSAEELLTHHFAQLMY

[21] = molecular target: Mitogen-activated protein kinase kinase kinase kinase 3 (Homo sapiens) (UniProt Q8IVH8); settings: Compound concentration 100.0 nM
[22] = molecular target: Phosphatidylinositol 4,5-bisphosphate 3-kinase catalytic subunit delta isoform (Homo sapiens) (UniProt O00329); settings: Compound concentration 100.0 nM
[23] = molecular target: Serine/threonine-protein kinase pim-1 (Homo sapiens) (UniProt P11309); settings: Compound concentration 100.0 nM
[24] = molecular target: Phosphatidylinositol 5-phosphate 4-kinase type-2 beta (Homo sapiens) (UniProt P78356); settings: Compound concentration 100.0 nM
Sequence of Phosphatidylinositol 5-phosphate 4-kinase type-2 beta (Homo sapiens) (P78356 whole entry): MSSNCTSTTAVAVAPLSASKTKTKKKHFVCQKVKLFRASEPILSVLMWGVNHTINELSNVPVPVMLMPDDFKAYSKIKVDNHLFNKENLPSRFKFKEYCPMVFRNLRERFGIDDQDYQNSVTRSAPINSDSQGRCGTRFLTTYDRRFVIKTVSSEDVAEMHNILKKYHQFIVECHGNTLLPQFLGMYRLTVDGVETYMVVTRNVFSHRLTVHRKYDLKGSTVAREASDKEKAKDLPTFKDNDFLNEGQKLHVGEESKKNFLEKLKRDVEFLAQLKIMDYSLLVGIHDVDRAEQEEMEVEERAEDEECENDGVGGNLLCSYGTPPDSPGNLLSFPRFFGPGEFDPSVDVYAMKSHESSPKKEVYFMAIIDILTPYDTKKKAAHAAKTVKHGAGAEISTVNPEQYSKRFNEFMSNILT

[25] = molecular target: Protein kinase C delta type (Homo sapiens) (UniProt Q05655); settings: Compound concentration 100.0 nM
[26] = molecular target: Serine/threonine-protein kinase SIK3 (Homo sapiens) (UniProt Q9Y2K2); settings: Compound concentration 100.0 nM
Sequence of Serine/threonine-protein kinase SIK3 (Homo sapiens) (Q9Y2K2 whole entry, looked up): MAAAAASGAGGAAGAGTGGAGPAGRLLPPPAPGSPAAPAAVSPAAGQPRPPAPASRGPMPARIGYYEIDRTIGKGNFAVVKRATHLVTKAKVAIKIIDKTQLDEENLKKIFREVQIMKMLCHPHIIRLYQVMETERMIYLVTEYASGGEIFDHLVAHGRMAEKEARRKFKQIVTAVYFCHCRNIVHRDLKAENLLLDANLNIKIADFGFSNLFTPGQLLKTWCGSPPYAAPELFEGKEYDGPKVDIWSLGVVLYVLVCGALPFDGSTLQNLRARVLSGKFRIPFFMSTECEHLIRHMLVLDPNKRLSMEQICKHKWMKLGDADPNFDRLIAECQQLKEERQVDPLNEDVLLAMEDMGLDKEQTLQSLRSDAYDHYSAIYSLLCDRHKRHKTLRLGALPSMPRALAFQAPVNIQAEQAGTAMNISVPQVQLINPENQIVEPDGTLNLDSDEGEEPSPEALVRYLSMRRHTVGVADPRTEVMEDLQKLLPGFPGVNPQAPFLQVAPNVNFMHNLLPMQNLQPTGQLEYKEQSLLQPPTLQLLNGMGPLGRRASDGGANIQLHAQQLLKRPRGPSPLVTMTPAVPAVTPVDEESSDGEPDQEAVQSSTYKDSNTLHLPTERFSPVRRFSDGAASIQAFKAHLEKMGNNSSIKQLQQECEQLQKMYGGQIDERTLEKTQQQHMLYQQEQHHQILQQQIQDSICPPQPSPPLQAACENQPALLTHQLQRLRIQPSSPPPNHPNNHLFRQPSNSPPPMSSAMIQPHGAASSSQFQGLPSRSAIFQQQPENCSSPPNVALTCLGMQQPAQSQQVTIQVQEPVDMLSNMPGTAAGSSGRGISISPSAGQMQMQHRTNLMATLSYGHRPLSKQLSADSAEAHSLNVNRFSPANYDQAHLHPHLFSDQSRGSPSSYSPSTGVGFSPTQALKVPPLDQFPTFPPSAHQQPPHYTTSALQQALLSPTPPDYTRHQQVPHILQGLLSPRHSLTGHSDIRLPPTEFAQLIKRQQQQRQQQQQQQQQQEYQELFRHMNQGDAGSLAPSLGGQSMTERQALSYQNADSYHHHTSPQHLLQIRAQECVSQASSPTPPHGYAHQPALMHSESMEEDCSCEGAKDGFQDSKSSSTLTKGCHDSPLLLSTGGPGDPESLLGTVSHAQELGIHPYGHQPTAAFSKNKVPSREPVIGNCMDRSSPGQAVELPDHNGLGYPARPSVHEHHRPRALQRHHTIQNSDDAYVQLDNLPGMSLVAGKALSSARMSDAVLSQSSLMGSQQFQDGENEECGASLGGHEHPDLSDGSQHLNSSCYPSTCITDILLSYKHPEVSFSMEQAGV

[27] = molecular target: Serine/threonine-protein kinase RIO2 (Homo sapiens) (UniProt Q9BVS4); settings: Compound concentration 100.0 nM
[28] = molecular target: Receptor-interacting serine/threonine-protein kinase 2 (Homo sapiens) (UniProt O43353); settings: Compound concentration 100.0 nM
[29] = molecular target: Dual serine/threonine and tyrosine protein kinase (Homo sapiens) (UniProt Q6XUX3); settings: Compound concentration 100.0 nM
[30] = molecular target: Ribosomal protein S6 kinase alpha-6 (Homo sapiens) (UniProt Q9UK32); settings: Compound concentration 100.0 nM
Sequence of Ribosomal protein S6 kinase alpha-6 (Homo sapiens) (Q9UK32 whole entry): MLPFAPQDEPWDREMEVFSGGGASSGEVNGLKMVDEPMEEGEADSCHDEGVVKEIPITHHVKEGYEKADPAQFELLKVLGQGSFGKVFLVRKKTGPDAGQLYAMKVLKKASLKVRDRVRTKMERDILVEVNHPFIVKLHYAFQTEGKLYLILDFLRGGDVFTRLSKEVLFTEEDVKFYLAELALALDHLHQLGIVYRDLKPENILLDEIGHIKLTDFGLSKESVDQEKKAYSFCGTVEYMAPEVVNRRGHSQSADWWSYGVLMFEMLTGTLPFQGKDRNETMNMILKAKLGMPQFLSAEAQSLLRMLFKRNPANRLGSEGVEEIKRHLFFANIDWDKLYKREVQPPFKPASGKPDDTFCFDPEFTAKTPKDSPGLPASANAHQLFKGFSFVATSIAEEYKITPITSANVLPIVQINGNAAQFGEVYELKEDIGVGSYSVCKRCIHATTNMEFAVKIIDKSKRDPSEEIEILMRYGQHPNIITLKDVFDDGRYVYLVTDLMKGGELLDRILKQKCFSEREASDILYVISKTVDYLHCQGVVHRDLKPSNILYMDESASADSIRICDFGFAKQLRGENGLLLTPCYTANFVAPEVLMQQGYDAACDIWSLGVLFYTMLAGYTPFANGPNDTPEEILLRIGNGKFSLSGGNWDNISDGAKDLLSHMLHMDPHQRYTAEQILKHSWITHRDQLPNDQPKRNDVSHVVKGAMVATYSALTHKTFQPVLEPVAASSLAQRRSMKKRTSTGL

[31] = molecular target: Serine/threonine-protein kinase TBK1 (Homo sapiens) (UniProt Q9UHD2); settings: Compound concentration 100.0 nM
[32] = molecular target: Tyrosine-protein kinase Tec (Homo sapiens) (UniProt P42680); settings: Compound concentration 100.0 nM
Sequence of Tyrosine-protein kinase Tec (Homo sapiens) (P42680 whole entry): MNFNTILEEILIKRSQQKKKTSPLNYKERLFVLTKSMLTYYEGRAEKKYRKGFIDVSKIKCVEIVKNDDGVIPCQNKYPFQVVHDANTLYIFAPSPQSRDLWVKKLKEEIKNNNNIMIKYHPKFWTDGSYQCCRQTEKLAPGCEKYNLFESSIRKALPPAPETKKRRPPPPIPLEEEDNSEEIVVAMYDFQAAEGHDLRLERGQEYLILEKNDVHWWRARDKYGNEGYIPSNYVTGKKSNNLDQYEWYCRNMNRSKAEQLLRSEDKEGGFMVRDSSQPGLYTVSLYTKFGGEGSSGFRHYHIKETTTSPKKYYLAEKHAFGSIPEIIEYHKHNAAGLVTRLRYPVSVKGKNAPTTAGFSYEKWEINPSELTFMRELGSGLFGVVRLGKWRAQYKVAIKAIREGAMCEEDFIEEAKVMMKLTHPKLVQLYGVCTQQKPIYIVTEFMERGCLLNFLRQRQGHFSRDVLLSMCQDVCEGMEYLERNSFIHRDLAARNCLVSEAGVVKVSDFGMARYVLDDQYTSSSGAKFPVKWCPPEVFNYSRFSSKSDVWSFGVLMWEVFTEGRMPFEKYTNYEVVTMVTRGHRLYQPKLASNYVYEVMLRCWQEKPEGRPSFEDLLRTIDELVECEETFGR

[33] = molecular target: Transient receptor potential cation channel subfamily M member 6 (Homo sapiens) (UniProt Q9BX84); settings: Compound concentration 100.0 nM
[34] = molecular target: Serine/threonine-protein kinase 25 (Homo sapiens) (UniProt O00506); settings: Compound concentration 100.0 nM
[35] = molecular target: T1, Tyrosine-protein kinase ZAP-70 (Homo sapiens) (UniProt P43403); settings: Compound concentration 100.0 nM
T1 sequence (whole entry): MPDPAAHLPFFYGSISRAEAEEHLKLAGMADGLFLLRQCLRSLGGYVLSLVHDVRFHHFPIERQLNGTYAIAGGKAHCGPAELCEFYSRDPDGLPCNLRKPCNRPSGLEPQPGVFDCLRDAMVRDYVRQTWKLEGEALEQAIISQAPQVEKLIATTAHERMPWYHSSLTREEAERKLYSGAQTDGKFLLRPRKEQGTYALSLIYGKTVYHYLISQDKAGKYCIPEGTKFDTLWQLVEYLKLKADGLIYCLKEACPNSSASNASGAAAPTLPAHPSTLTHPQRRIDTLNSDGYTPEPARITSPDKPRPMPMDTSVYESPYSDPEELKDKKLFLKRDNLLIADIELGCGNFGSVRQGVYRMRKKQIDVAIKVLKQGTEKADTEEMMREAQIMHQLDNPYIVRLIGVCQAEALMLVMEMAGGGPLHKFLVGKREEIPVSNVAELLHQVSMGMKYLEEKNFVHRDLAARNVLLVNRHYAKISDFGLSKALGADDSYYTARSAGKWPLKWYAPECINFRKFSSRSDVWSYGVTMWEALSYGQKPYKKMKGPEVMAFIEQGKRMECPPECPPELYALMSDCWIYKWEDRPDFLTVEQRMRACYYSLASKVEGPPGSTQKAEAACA

[36] = molecular target: Beta-3 adrenergic receptor (Homo sapiens) (UniProt P13945); settings: Compound concentration 10.0 uM
[37] = molecular target: Sigma non-opioid intracellular receptor 1 (Homo sapiens, UniProt Q99720); settings: Compound concentration 10.0 uM
Sequence of Sigma non-opioid intracellular receptor 1 (Q99720 whole entry): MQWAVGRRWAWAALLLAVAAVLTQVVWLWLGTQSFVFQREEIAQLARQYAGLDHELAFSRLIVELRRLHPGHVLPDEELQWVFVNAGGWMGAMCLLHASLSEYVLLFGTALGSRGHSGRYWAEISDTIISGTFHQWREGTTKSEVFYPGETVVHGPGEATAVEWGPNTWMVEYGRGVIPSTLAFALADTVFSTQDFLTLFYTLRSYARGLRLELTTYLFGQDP

SMILES	residual activity [1] [%]	residual activity [2] [%]	residual activity [3] [%]	residual activity [4] [%]	residual activity [5] [%]	residual activity [6] [%]	residual activity [7] [%]	residual activity [8] [%]	residual activity [9] [%]	residual activity [10] [%]	residual activity [11] [%]	residual activity [12] [%]	residual activity [13] [%]	residual activity [14] [%]	residual activity [15] [%]	residual activity [16] [%]	residual activity [17] [%]	residual activity [18] [%]	residual activity [19] [%]	residual activity [20] [%]	further results
Cc1c[nH]c2nccc(Oc3c(F)cc(Nc4cc(Cl)nc(N)n4)cc3F)c12 [BAY-549]	91	94	97	73	83	100	100	94	97	65	82	68	100	100	100	100	100	80	84	99	residual activity [21]: 91%; residual activity [22]: 51%; residual activity [23]: 100%; residual activity [24]: 90%; residual activity [25]: 100%; residual activity [26]: 100%; residual activity [27]: 85%; residual activity [28]: 92%; residual activity [29]: 67%; residual activity [30]: 99%; residual activity [31]: 96%; residual activity [32]: 86%; residual activity [33]: 83%; residual activity [34]: 100%; residual activity [35]: 100%; inhibition [36]: 22%; inhibition [37]: 54.8%
Cn1cc(Cl)c2c(Oc3c(F)cc(Nc4cc(Cl)nc(N)n4)cc3F)ccnc21 [BAY-4900]	94	87	100	78	96	89	100	83	100	75	100	76	100	100	99	100	80	90	97	90	residual activity [21]: 100%; residual activity [22]: 51%; residual activity [23]: 100%; residual activity [24]: 76%; residual activity [25]: 100%; residual activity [26]: 100%; residual activity [27]: 100%; residual activity [28]: 83%; residual activity [29]: 98%; residual activity [30]: 100%; residual activity [31]: 100%; residual activity [32]: 100%; residual activity [33]: 77%; residual activity [34]: 100%; residual activity [35]: 100%; inhibition [36]: 3.48%; inhibition [37]: 22.3%
